≈ marks a conversion by molar mass, not a printed value.
Columns and labels:
[1] = tested on: Staphylococcus epidermidis 270; experiment: broth micro-dilution MIC; assay type: cell-based
Experimental: (§1) The formula I compounds have in vitro and in vivo activity against Gram-positive pathogenic bacteria. The MIC's were determined using a standard broth micro-dilution assay.

[2] = tested on: Haemophilus influenzae RD; experiment: broth micro-dilution MIC; assay type: cell-based; conditions: Haemophilus influenzae RD
Experimental: as §1

Entercoccus faecium 180 = experiment: broth micro-dilution MIC; assay type: cell-based; conditions: Entercoccus faecium 180
Experimental: as §1

[3] = tested on: Enterococcus gallinarum 245; experiment: broth micro-dilution MIC; assay type: cell-based; conditions: Enterococcus gallinarum 245
Experimental: as §1

Entercoccus faecium 2041 = experiment: broth micro-dilution MIC; assay type: cell-based; conditions: Entercoccus faecium 2041
Experimental: as §1

[4] = tested on: Streptococcus pneumoniae P1; experiment: broth micro-dilution MIC; assay type: cell-based
Experimental: as §1

Escherichia coli EC14 = experiment: broth micro-dilution MIC; assay type: cell-based
Experimental: as §1

[5] = tested on: Staphylococcus haemolyticus 105; experiment: broth micro-dilution MIC; assay type: cell-based
Experimental: as §1

[6] = tested on: Staphylococcus haemolyticus 415; experiment: broth micro-dilution MIC; assay type: cell-based
Experimental: as §1

[7] = tested on: Staphylococcus aureus SA1199B; assay type: cell-based
Experimental: (§2) The MIC's were determined using a standard broth micro-dilution assay.

[8] = tested on: Staphylococcus aureus S13E; assay type: cell-based
Experimental: as §2

[9] = tested on: Staphylococcus aureus SA1199; experiment: broth micro-dilution MIC; assay type: cell-based
Experimental: as §2

Entercoccus faecium 276 = experiment: broth micro-dilution MIC; assay type: cell-based
Experimental: as §2

[10] = tested on: Staphylococcus aureus 489; experiment: broth micro-dilution MIC; assay type: cell-based
Experimental: as §2

[11] = tested on: Staphylococcus aureus 447; experiment: broth micro-dilution MIC; assay type: cell-based
Experimental: as §2

[12] = tested on: Entercoccus faecium 180-1; experiment: broth micro-dilution MIC; assay type: cell-based
Experimental: as §2

[13] = tested on: Staphylococcus aureus 491; experiment: broth micro-dilution MIC; assay type: cell-based
Experimental: as §2

[14] = tested on: Staphylococcus aureus SA1199A; experiment: broth micro-dilution MIC; assay type: cell-based
Experimental: as §2

[15] = tested on: Staphylococcus aureus X400; experiment: broth micro-dilution MIC; assay type: cell-based
Experimental: as §2

[16] = tested on: Streptococcus pyogenes C203; experiment: broth micro-dilution MIC; assay type: cell-based
Experimental: as §2

[17] = tested on: Staphylococcus aureus 446; experiment: broth micro-dilution MIC; assay type: cell-based
Experimental: as §2

[18] = tested on: Staphylococcus aureus X778; experiment: broth micro-dilution MIC; assay type: cell-based
Experimental: as §2

[19] = tested on: vancomycin-resistant enterococci; experiment: broth micro-dilution, mean geometric MIC; assay type: cell-based, Enterococcus faecium and Enterococcus faecalis; conditions: enterococci, 24-hour incubation
[20] = tested on: vancomycin-susceptible enterococci; experiment: broth micro-dilution, mean geometric MIC; assay type: cell-based, Enterococcus faecium and Enterococcus faecalis; conditions: enterococci, 24-hour incubation

Row | Structure (SMILES) | MIC [1] [µg/mL] | MIC [2] [µg/mL] | MIC (Entercoccus faecium 180) [µg/mL] | MIC [3] [µg/mL] | MIC (Entercoccus faecium 2041) [µg/mL] | MIC [4] [µg/mL] | MIC (Escherichia coli EC14) [µg/mL] | MIC [5] [µg/mL] | MIC [6] [µg/mL] | MIC [7] [µg/mL] | MIC [8] [µg/mL] | MIC [9] [µg/mL] | MIC (Entercoccus faecium 276) [µg/mL] | MIC [10] [µg/mL] | MIC [11] [µg/mL] | MIC [12] [µg/mL] | MIC [13] [µg/mL] | MIC [14] [µg/mL] | MIC [15] [µg/mL] | MIC [16] [µg/mL] | other results
1 | CC(C)CC(C(=O)NC1C(=O)NC(CC(N)=O)C(=O)NC2C(=O)NC3C(=O)NC(C(=O)NC(C(=O)O)c4cc(O)cc(O)c4-c4cc3ccc4O)C(OC3CC(C)(N)C(O)C(C)O3)c3ccc(c(Cl)c3)Oc3cc2cc(c3OC2OC(CO)C(O)C(O)C2OC2CC(C)(NCc3cccc4c3OCO4)C(O)C(C)O2)Oc2ccc(cc2Cl)C1O)N(C)Cc1cccc2c1OCO2 (stereo not drawn) [Compound 269] | 8 (≈ 4.3 µM) | > 64 | 4 (≈ 2.15 µM) | 4 (≈ 2.15 µM) | 0.125 (≈ 0.0672 µM) | ≤ 0.06 | > 64 | 8 (≈ 4.3 µM) | 4 (≈ 2.15 µM) | 0.5 (≈ 0.269 µM) | 1 (≈ 0.537 µM) | 0.25 (≈ 0.134 µM) | 0.125 (≈ 0.0672 µM) | 0.25 (≈ 0.134 µM) | 4 (≈ 2.15 µM) | 0.125 (≈ 0.0672 µM) | 1 (≈ 0.537 µM) | ≤ 0.06 | 0.5 (≈ 0.269 µM) | ≤ 0.06 | MIC [17]: 2 µg/mL (≈ 1.07 µM); MIC [18]: 0.25 µg/mL (≈ 0.134 µM); mean geometric MIC, Vancomycin Resistant Strains [19]: 38 µg/mL; mean geometric MIC, Vancomycin Sensitive Strains [20]: 1.1 µg/mL
2 | CC(C)CC(C(=O)NC1C(=O)NC(CC(N)=O)C(=O)NC2C(=O)NC3C(=O)NC(C(=O)NC(C(=O)O)c4cc(O)cc(O)c4-c4cc3ccc4O)C(OC3CC(C)(N)C(O)C(C)O3)c3ccc(c(Cl)c3)Oc3cc2cc(c3OC2OC(CO)C(O)C(O)C2OC2CC(C)(NCc3ccc(-c4ccccc4)cc3)C(O)C(C)O2)Oc2ccc(cc2Cl)C1O)N(C)Cc1ccc(-c2ccccc2)cc1 (stereo not drawn) [Compound 251] | 0.25 (≈ 0.13 µM) | > 64 | 2 (≈ 1.04 µM) | 4 (≈ 2.08 µM) | ≤ 0.06 | ≤ 0.06 | > 64 | 2 (≈ 1.04 µM) | 4 (≈ 2.08 µM) | ≤ 0.06 | ≤ 0.06 | ≤ 0.06 | ≤ 0.06 | ≤ 0.06 | 0.125 (≈ 0.0649 µM) | ≤ 0.06 | ≤ 0.06 | ≤ 0.06 | ≤ 0.06 | ≤ 0.06 | MIC [17]: 0.25 µg/mL (≈ 0.13 µM); MIC [18]: ≤ 0.06 µg/mL; mean geometric MIC, Vancomycin Resistant Strains [19]: 2 µg/mL; mean geometric MIC, Vancomycin Sensitive Strains [20]: 0.66 µg/mL
3 | CC(C)CC(C(=O)NC1C(=O)NC(CC(N)=O)C(=O)NC2C(=O)NC3C(=O)NC(C(=O)NC(C(=O)O)c4cc(O)cc(O)c4-c4cc3ccc4O)C(OC3CC(C)(N)C(O)C(C)O3)c3ccc(c(Cl)c3)Oc3cc2cc(c3OC2OC(CO)C(O)C(O)C2OC2CC(C)(NCc3ccncc3)C(O)C(C)O2)Oc2ccc(cc2Cl)C1O)N(C)Cc1ccncc1 (stereo not drawn) [Compound 274] | 16 (≈ 9.02 µM) | > 64 | > 64 | > 64 | 1 (≈ 0.563 µM) | ≤ 0.06 | > 64 | > 64 | > 64 | 2 (≈ 1.13 µM) | 4 (≈ 2.25 µM) | 2 (≈ 1.13 µM) | 1 (≈ 0.563 µM) | 2 (≈ 1.13 µM) | 16 (≈ 9.02 µM) | 0.5 (≈ 0.282 µM) | 4 (≈ 2.25 µM) | 1 (≈ 0.563 µM) | 8 (≈ 4.51 µM) | 0.125 (≈ 0.0704 µM) | MIC [17]: 8 µg/mL (≈ 4.51 µM); MIC [18]: 4 µg/mL (≈ 2.25 µM); mean geometric MIC, Vancomycin Resistant Strains [19]: > 128 µg/mL; mean geometric MIC, Vancomycin Sensitive Strains [20]: 9.2 µg/mL
4 | CNC(CC(C)C)C(=O)NC1C(=O)NC(CC(N)=O)C(=O)NC2C(=O)NC3C(=O)NC(C(=O)NC(C(=O)O)c4cc(O)cc(O)c4-c4cc3ccc4O)C(OC3CC(C)(NCc4cnc5ccccc5c4)C(O)C(C)O3)c3ccc(c(Cl)c3)Oc3cc2cc(c3OC2OC(CO)C(O)C(O)C2OC2CC(C)(NCc3cnc4ccccc4c3)C(O)C(C)O2)Oc2ccc(cc2Cl)C1O (stereo not drawn) [Compound 275] | 1 (≈ 0.533 µM) | > 64 | 1 (≈ 0.533 µM) | 4 (≈ 2.13 µM) | ≤ 0.06 | ≤ 0.06 | > 64 | 1 (≈ 0.533 µM) | 4 (≈ 2.13 µM) | 0.125 (≈ 0.0667 µM) | 0.125 (≈ 0.0667 µM) | ≤ 0.06 | ≤ 0.06 | ≤ 0.06 | 1 (≈ 0.533 µM) | ≤ 0.06 | 1 (≈ 0.533 µM) | ≤ 0.06 | 0.25 (≈ 0.133 µM) | ≤ 0.06 | MIC [17]: 0.25 µg/mL (≈ 0.133 µM); MIC [18]: ≤ 0.06 µg/mL; mean geometric MIC, Vancomycin Resistant Strains [19]: 16 µg/mL; mean geometric MIC, Vancomycin Sensitive Strains [20]: 0.33 µg/mL
5 | CC(C)CC(C(=O)NC1C(=O)NC(CC(N)=O)C(=O)NC2C(=O)NC3C(=O)NC(C(=O)NC(C(=O)O)c4cc(O)cc(O)c4-c4cc3ccc4O)C(OC3CC(C)(N)C(O)C(C)O3)c3ccc(c(Cl)c3)Oc3cc2cc(c3OC2OC(CO)C(O)C(O)C2OC2CC(C)(NCc3c4ccccc4cc4ccccc34)C(O)C(C)O2)Oc2ccc(cc2Cl)C1O)N(C)Cc1c2ccccc2cc2ccccc12 (stereo not drawn) [Compound 284] | 16 (≈ 8.11 µM) | > 64 | 8 (≈ 4.05 µM) | 32 (≈ 16.2 µM) | 1 (≈ 0.507 µM) | ≤ 0.06 | > 64 | 32 (≈ 16.2 µM) | 32 (≈ 16.2 µM) | 4 (≈ 2.03 µM) | 4 (≈ 2.03 µM) | 8 (≈ 4.05 µM) | 8 (≈ 4.05 µM) | 2 (≈ 1.01 µM) | 8 (≈ 4.05 µM) | 0.5 (≈ 0.253 µM) | 2 (≈ 1.01 µM) | 0.25 (≈ 0.127 µM) | 4 (≈ 2.03 µM) | ≤ 0.06 | MIC [17]: 8 µg/mL (≈ 4.05 µM); MIC [18]: 1 µg/mL (≈ 0.507 µM); mean geometric MIC, Vancomycin Resistant Strains [19]: 38 µg/mL; mean geometric MIC, Vancomycin Sensitive Strains [20]: 2.3 µg/mL
6 | COc1ccc2ccccc2c1CNC1(C)CC(OC2C(Oc3c4cc5cc3Oc3ccc(cc3Cl)C(OC3CC(C)(N)C(O)C(C)O3)C3NC(=O)C(NC(=O)C5NC(=O)C(CC(N)=O)NC(=O)C(NC(=O)C(CC(C)C)N(C)Cc5c(OC)ccc6ccccc56)C(O)c5ccc(c(Cl)c5)O4)c4ccc(O)c(c4)-c4c(O)cc(O)cc4C(C(=O)O)NC3=O)OC(CO)C(O)C2O)OC(C)C1O (stereo not drawn) [Compound 282] | > 64 | > 64 | 32 (≈ 16.6 µM) | > 64 | 4 (≈ 2.07 µM) | ≤ 0.06 | > 64 | > 64 | > 64 | 16 (≈ 8.28 µM) | 16 (≈ 8.28 µM) | 16 (≈ 8.28 µM) | 4 (≈ 2.07 µM) | 8 (≈ 4.14 µM) | > 64 | 1 (≈ 0.517 µM) | 16 (≈ 8.28 µM) | 1 (≈ 0.517 µM) | 16 (≈ 8.28 µM) | ≤ 0.06 | MIC [17]: 32 µg/mL (≈ 16.6 µM); MIC [18]: 16 µg/mL (≈ 8.28 µM); mean geometric MIC, Vancomycin Resistant Strains [19]: 45 µg/mL; mean geometric MIC, Vancomycin Sensitive Strains [20]: 2.6 µg/mL
7 | CNC(CC(C)C)C(=O)NC1C(=O)NC(CC(N)=O)C(=O)NC2C(=O)NC3C(=O)NC(C(=O)NC(C(=O)O)c4cc(O)cc(O)c4-c4cc3ccc4O)C(OC3CC(C)(NCc4ccc(SC)cc4)C(O)C(C)O3)c3ccc(c(Cl)c3)Oc3cc2cc(c3OC2OC(CO)C(O)C(O)C2OC2CC(C)(NCc3ccc(SC)cc3)C(O)C(C)O2)Oc2ccc(cc2Cl)C1O (stereo not drawn) [Compound 278] | 1 (≈ 0.536 µM) | > 64 | 1 (≈ 0.536 µM) | 2 (≈ 1.07 µM) | 0.125 (≈ 0.067 µM) | ≤ 0.06 | > 64 | 0.5 (≈ 0.268 µM) | 2 (≈ 1.07 µM) | 0.5 (≈ 0.268 µM) | 1 (≈ 0.536 µM) | 0.25 (≈ 0.134 µM) | 0.25 (≈ 0.134 µM) | 0.5 (≈ 0.268 µM) | 2 (≈ 1.07 µM) | ≤ 0.06 | 1 (≈ 0.536 µM) | 1 (≈ 0.536 µM) | 0.25 (≈ 0.134 µM) | ≤ 0.06 | MIC [17]: 1 µg/mL (≈ 0.536 µM); MIC [18]: 0.5 µg/mL (≈ 0.268 µM); mean geometric MIC, Vancomycin Resistant Strains [19]: 8 µg/mL; mean geometric MIC, Vancomycin Sensitive Strains [20]: 0.29 µg/mL

— patent US5840684A, “Glycopeptide antibiotic derivatives” (Eli Lilly and Company, priority 1995, dated 1998)
